ChEMBL document CHEMBL1212701, “Identification of small molecules rescuing fragile X syndrome phenotypes in Drosophila” (2008)
Active and inactive are the calls of the source. The rule behind the calls is not given here.

Key:
[1] = tested on: Drosophila; assay: Protection against fragile X syndrome phenotypes in Fmr1 null mutant Drosophila Fmr1'3/TM6C assessed as embryo viability at 40 uM at 25 degC by flow cytometry relative to untreated homozygous embryos; assay type: functional
[2] = tested on: Drosophila; assay: Protection against fragile X syndrome phenotypes in laboratory prepared food feeded Fmr1 null mutant Drosophila Fmr1'3/TM6C assessed as homozygous Fmr1-/- embryo viability at 40 uM at 25 degC by flow cytometry relative to untreated homozygous embryos fed with only laboratory prepared food; assay type: functional
[3] = tested on: Drosophila; assay: Suppression of Futsch protein overexpression in head lysates of laboratory prepared food feeded Fmr1 null mutant Drosophila Fmr1'3/TM6C fragile X syndrome model at 40 uM by Western blot; assay type: functional, organism-based
[4] = tested on: Drosophila; assay: Cytoprotection against glutamate-induced toxicity in laboratory prepared food feeded Fmr1 null mutant Drosophila Fmr1'3/TM6C fragile X syndrome model assessed as embryo viability at 40 uM in presence of 40 uM GABAB receptor antagonist CGP-54626 by flow cytometry relative to untreated embryos; assay type: functional, organism-based
[5] = tested on: Drosophila; assay: Suppression of beta-lobe midline crossing deffect in mushroom bodies of laboratory prepared food feeded Fmr1 null mutant Drosophila Fmr1'3/TM6C fragile X syndrome model at by Fas2 staining based confocal microscopy; assay type: functional
[6] = tested on: Drosophila; assay: Protection against fragile X syndrome phenotypes in laboratory prepared food feeded Fmr1 null mutant Drosophila Fmr1'3/TM6C assessed as homozygous Fmr1-/- embryo viability at 20 uM at 25 degC by flow cytometry relative to untreated homozygous embryos fed with only laboratory prepared food; assay type: functional
[7] = tested on: Drosophila; assay: Protection against fragile X syndrome phenotypes in laboratory prepared food feeded Fmr1 null mutant Drosophila Fmr1'3/TM6C assessed as homozygous Fmr1-/- embryo viability at 5 uM at 25 degC by flow cytometry relative to untreated homozygous embryos fed with only laboratory prepared food; assay type: functional
[8] = tested on: Drosophila; assay: Suppression of Futsch protein overexpression in head lysates of laboratory prepared food feeded Fmr1 null mutant Drosophila Fmr1'3/TM6C fragile X syndrome model at 40 uM in presence of Scopolamine by Western blot; assay type: functional, organism-based
[9] = tested on: Drosophila; assay: Protection against fragile X syndrome phenotypes in laboratory prepared food feeded Fmr1 null mutant Drosophila Fmr1'3/TM6C assessed as homozygous Fmr1-/- embryo viability at 10 uM at 25 degC by flow cytometry relative to untreated homozygous embryos fed with only laboratory prepared food; assay type: functional
[10] = tested on: Drosophila; assay: Cytoprotection against glutamate-induced toxicity in laboratory prepared food feeded Fmr1 null mutant Drosophila Fmr1'3/TM6C fragile X syndrome model assessed as embryo viability at 80 uM by flow cytometry relative to untreated embryos; assay type: functional, organism-based
[11] = tested on: Drosophila; assay: Suppression of glutamate-induced beta-lobe midline crossing deffect in mushroom bodies of laboratory prepared food feeded Fmr1 null mutant Drosophila Fmr1'3/TM6C fragile X syndrome model at 80 uM by Fas2 staining based confocal microscopy; assay type: functional, organism-based
[12] = tested on: Drosophila; assay: Suppression of glutamate-induced courtship behavior deffect in laboratory prepared food feeded male Fmr1 null mutant Drosophila Fmr1'3/TM6C fragile X syndrome model assessed as courtship behavior towards female flies at 80 uM for 10 mins by courtship index assay; assay type: functional, organism-based
[13] = tested on: Drosophila; assay: Cytoprotection against glutamate-induced toxicity in laboratory prepared food feeded Fmr1 null mutant Drosophila Fmr1'3/TM6C fragile X syndrome model assessed as genetic segregation ratio at 40 uM by flow cytometry relative to untreated embryos; assay type: functional
[14] = tested on: Drosophila; assay: Cytoprotection against glutamate-induced toxicity in laboratory prepared food feeded Fmr1 null mutant Drosophila Fmr1'3/TM6C fragile X syndrome model assessed as embryo viability at 40 uM by flow cytometry relative to untreated embryos; assay type: functional, organism-based
[15] = tested on: Drosophila; assay: Cytoprotection against glutamate-induced toxicity in laboratory prepared food feeded Fmr1 null mutant Drosophila Fmr1'3/TM6C fragile X syndrome model assessed as embryo viability at 40 uM in presence of GABAB receptor antagonist CGP-54626 by flow cytometry relative to untreated embryos; assay type: functional
[16] = tested on: Drosophila; assay: Suppression of glutamate-induced Futsch protein overexpression in head lysates of laboratory prepared food feeded Fmr1 null mutant Drosophila Fmr1'3/TM6C fragile X syndrome model at 40 uM by Western blot; assay type: functional, organism-based
[17] = tested on: Drosophila; assay: Suppression of glutamate-induced beta-lobe midline crossing deffect in mushroom bodies of laboratory prepared food feeded Fmr1 null mutant Drosophila Fmr1'3/TM6C fragile X syndrome model at 40 uM by Fas2 staining based confocal microscopy; assay type: functional
[18] = tested on: Drosophila; assay: Suppression of glutamate-induced beta-lobe midline crossing deffect in mushroom bodies of laboratory prepared food feeded Fmr1 null mutant Drosophila Fmr1'3/TM6C fragile X syndrome model assessed as incidence of severe deffects at 40 uM by Fas2 staining based confocal microscopy; assay type: functional
[19] = tested on: Drosophila; assay: Suppression of glutamate-induced courtship behavior deffect in laboratory prepared food feeded male Fmr1 null mutant Drosophila Fmr1'3/TM6C fragile X syndrome model assessed as courtship behavior towards female flies at 40 uM for 10 mins by courtship index assay; assay type: functional, organism-based

With CN1[C@@H]2CC[C@H]1C[C@@H](OC(c1ccccc1)c1ccccc1N)C2 (stereo not given in full) [AMINOBENZTROPINE] the Activity [1] was 25%, the Activity [2] was 66.38% and the Activity [3] was “Active”. For the same compound, the Activity [4] was “Active”.
Cl.NCCc1ccc(O)c(O)c1 [DOPAMINE HYDROCHLORIDE] showed an Activity [1] of 25%.
Work on Cl.NCC(=O)c1ccccc1 [PHENACYLAMINE HYDROCHLORIDE] yielded an Activity [1] of 25%.
With C/C=C(/C(=C/C)c1ccc(O)cc1)c1ccc(O)cc1 [DIENESTROL] the Activity [1] was 33% and the Activity [2] was 71.3%.
In the case of O=C(O)C1CCCNC1 (stereo not given) [NIPECOTIC ACID], the Activity [1] is reported as 58%, the Activity [2] is reported as 84.2% and the Activity [3] is reported as “Active”. The Activity [5] was 69%.
COC(=O)[C@H]1[C@H]2C[C@@H]3c4[nH]c5cc(OC)ccc5c4CCN3C[C@H]2C[C@@H](OC(=O)c2cc(OC)c(OC)c(OC)c2)[C@@H]1OC [RESERPINE] was tested, and the Activity [1] was 25%.
Compound Cl.Cl.NNCc1cccc(O)c1 has an Activity [1] of 67%.
C[C@@H](CO)NC(=O)[C@@H]1C=C2c3cccc4[nH]cc(c34)C[C@H]2N(C)C1.O=C(O)/C=C\C(=O)O [ERGONOVINE MALEATE] gave an Activity [1] of 33% and an Activity [6] of 69.85%.
For CC[C@@H]1C(=O)OC[C@@H]1Cc1cncn1C.O=[N+]([O-])O [PILOCARPINE NITRATE], the Activity [1] was 33%, the Activity [7] was 68.5% and the Activity [3] was “Active”. For the same compound, the Activity [8] was “inactive” and the Activity [5] was 69%.
For Cc1cccc(C#Cc2ccccc2)n1, the Activity [9] was 61.6%, the Activity [10] was “Active” and the Activity [11] was “Active”. The Activity [12] was “Active”.
With CCN(CC)CCOc1ccc(C(=C(Cl)c2ccccc2)c2ccccc2)cc1 [CLOMIPHENE] the Activity [1] was 25% and the Activity [7] was 54.96%.
NCCCC(=O)O [GAMMA-AMINOBUTYRIC ACID] showed an Activity [1] of 25%, an Activity [2] of 83.1% and an Activity [13] of 33%. The Activity [14] was “Active”, the Activity [15] was 8% and the Activity [16] was “Active”. For the same compound, the Activity [17] was 70%, the Activity [18] was 7% and the Activity [19] was “Active”.
CC(=O)N[C@@H](CS)C(=O)O [ACETYLCYSTEINE] was tested, and the Activity [1] was 67%.
For Cc1cc(O)cc(C)c1Cl [CHLOROXYLENOL], the Activity [1] was 42%.
With CN1CC(=O)NC1=N [CREATININE] the Activity [1] was 58%, the Activity [2] was 123.2% and the Activity [3] was “Active”. For the same compound, the Activity [5] was 69%.
C[C@H](NC[C@H](O)CP(=O)(O)CC1CCCCC1)c1ccc(Cl)c(Cl)c1 was tested, and the Activity [14] was “inactive”.
O=c1cc(CO)occ1O [KOJIC ACID] was tested, and the Activity [1] was 25% and the Activity [9] was 73.06%.
